Laboratory results published in publication PMC4875962 (Clinical Pharmacokinetics, 2015).
Like-named read-outs stand apart in the source and are kept apart here.

Columns and labels:
[1] = cited from earlier work
[2] = cited from earlier work; remark: listed apart in the source
[3] = cited from earlier work; remark: listed apart in the source
[4] = concentrations of 0.2–5 µg/mL; cited from earlier work
[5] = cited from earlier work; remark: listed apart in the source
[6] = In vitro plasma protein binding
[7] = cited from earlier work; remark: listed apart in the source
[8] = cited from earlier work; remark: listed apart in the source
[9] = test system: multidrug resistance protein 1 (MDR1; P-gp); experiment: Induction of gene expression in human hepatocytes; settings: data on file
CYP3A4 = experiment: Induction of gene expression in human hepatocytes; settings: data on file
[10] = Mild impairment: CLCR ≥50–≤80 mL/min
[11] = Moderate impairment: CLCR ≥30–<50 mL/min
[12] = Severe impairment: CLCR <30 mL/min
[13] = coadministration of amiodarone, following 3 days of once daily dosing
[14] = coadministration of cyclosporine
[15] = coadministration of dronedarone
[16] = coadministration of erythromycin
[17] = coadministration of high-dose aspirin (325 mg)
[18] = coadministration of ketoconazole
[19] = coadministration of oral quinidine
[20] = coadministration of sustained-release verapamil
[21] = rifampin after 7 days of dosing

fraction unbound [6]: ~0.45
induction of gene expression of MDR1 (P-gp) [9]: do not induce
induction of gene expression of CYP3A4 (CYP3A4): do not induce
SMILES: CN1CCc2nc(C(=O)N[C@@H]3C[C@@H](C(=O)N(C)C)CC[C@@H]3NC(=O)C(=O)Nc3ccc(Cl)cn3)sc2C1 [edoxaban]
effect of ABCB1 genotype (C3435T) on pharmacokinetics [1]: no effect
safety assessed by bleeding events versus warfarin [2]: improved safety
efficacy versus warfarin ([2]; non-valvular AF, deep vein thrombosis and pulmonary embolism): noninferior
AUC∞ [3, 10]: 636 ± 152 ng·h/mL
CL/F [3, 10]: 24.8 ± 6.00 L/h
CLR [3, 10]: 7.68 ± 2.57 L/h
AUC∞ [3, 11]: 816 ± 209 ng·h/mL
C max [3, 11]: 115 ± 42.3 ng/mL
CL/F [3, 11]: 19.4 ± 4.69 L/h
CLR [3, 11]: 4.30 ± 1.72 L/h
AUC∞ ([3]; Normal: CLCR >80 mL/min): 453 ± 102 ng·h/mL
CL/F ([3]; Normal: CLCR >80 mL/min): 34.6 ± 7.32 L/h
C max [3, 12]: 91.9 ± 32.8 ng/mL
CL/F [3, 12]: 18.5 ± 4.87 L/h
CLR [3, 12]: 2.12 ± 0.88 L/h
higher total exposure vs normal renal function ([3]; mild renal impairment (CLCR ≥50–≤80 mL/min)): 32%
higher total exposure vs normal renal function ([3]; moderate renal impairment (CLCR ≥30–<50 mL/min)): 74%
higher total exposure vs normal renal function ([3]; severe renal impairment (CLCR <30 mL/min)): 72%
in vitro total plasma protein binding [4]: about 55%
partition in blood [5]: 46%
increase in peak exposure to single doses of edoxaban [7, 13]: 66%
increase in total exposure to single doses of edoxaban [7, 13]: 40%
effect on peak or total exposure to edoxaban ([7]; coadministration of atorvastatin): no effect
increase in peak exposure to single doses of edoxaban [7, 14]: 74%
increase in total exposure to single doses of edoxaban [7, 14]: 73%
increase in edoxaban Cmax ([7]; coadministration of digoxin, steady state): 16%
effect on total exposure or renal clearance at steady state ([7]; coadministration of digoxin): no significant effect
increase in peak exposure to single doses of edoxaban [7, 15]: 46%
increase in total exposure to single doses of edoxaban [7, 15]: 85%
increase in peak exposure to single doses of edoxaban [7, 16]: 68%
increase in total exposure to single doses of edoxaban [7, 16]: 85%
increase in steady-state peak exposure to edoxaban [7, 17]: 34%
increase in steady-state total exposure to edoxaban [7, 17]: 30%
increase in single-dose peak exposure to edoxaban [7, 18]: 89%
increase in single-dose total exposure to edoxaban [7, 18]: 87%
effect on peak and total exposure to edoxaban ([7]; coadministration of naproxen): no effect
increase in 24-h exposure to orally dosed edoxaban [7, 19]: 77%
increase in single-dose peak exposure to orally dosed edoxaban [7, 19]: 85%
increase in 24-h exposure to single doses of edoxaban [7, 20]: 53%
increase in peak exposure to single doses of edoxaban [7, 20]: 53%
increase in exposure to edoxaban (Cmax and AUC) ([7]; concomitant P-gp inhibitor use): less than twofold
decrease in peak exposure to edoxaban ([7]; edoxaban 2 h after esomeprazole at steady state): about 33%
effect on peak and total exposure to edoxaban ([7]; enoxaparin dosed concomitantly or 12 h apart): did not affect
increase in Cmax of edoxaban ([7]; esomeprazole, 2-h stagger at steady state, 90 % CI 57.98–78.07): approximately 33%
effect on total exposure to edoxaban ([7]; esomeprazole, 2-h stagger at steady state, 90 % CI within 80–125 %): no significant effect
effect on peak and total exposure to edoxaban ([7]; esomeprazole, concurrent dosing): no significant effect
increase in peak exposure to intravenous edoxaban ([7]; orally administered quinidine): 7.5%
increase in total exposure to intravenous edoxaban ([7]; orally administered quinidine): 35%
decrease in total edoxaban exposure [7, 21]: about 34%
effect on peak edoxaban exposure [7, 21]: no effect
increase of mean peak exposure (Cmax) in the fed state vs fasted state ([8]; 60 mg single dose): 6–22%
increase of total exposure with food ([8]; 60 mg single dose): 12–15%
effect of food on total exposure [8]: Coadministration with food does not affect total edoxaban exposure
